Results on one molecule are retold here after patent publication US10487056B2, “Small molecule androgen receptor inhibitors and methods of use thereof” (GEORGETOWN UNIVERSITY, priority 2015, dated 2019).

Holding throughout (format): cell-based
Data set [1] concerns AR. In words: 22Rv1-ARE-luc androgen-response element luciferase reporter assay. The conditions noted are these: 24 hours. As to the method: VCaP and CWR22Rv1 (referred to as 22Rv1) cells were transduced with ARE-luciferase Cignal Lenti Pathway Reporter (Qiagen; Valencia, Calif.) and cultured as described above in the presence of 1 μg/mL puromycin. Following antibiotic selection, cells stably expressing ARE-luciferase were isolated, cloned and cultured to generate a stable ARE-reporter cell lines.

In data set [2] the test system is hTERT promoter. The data set is described as follows: hTERT promoter-luciferase reporter in 22Rv1 cells. The conditions noted are these: 2.5 μM, 24 hours. As to the method: 22Rv1 cells were transfected with hTERT promoter-luciferase reporter construct and Renilla luciferase plasmids (pRL-TK-Luc) and treated with 2.5 μM of SH-I-125 for 24 hours. Promoter activity was determined after normalization with Renilla luciferase activity. Columns, mean of three independent experiments with quadruplicate samples; bars, SEM.
Background: In a reporter assay the amount or activity of a reporter protein is the signal.

Data set [3] deals with c-myc promoter. The data set is described as follows: c-myc promoter-luciferase reporter in 22Rv1 cells. The conditions noted are these: 1 μM, 24 hours. As for the experimental part:
22Rv1 cells were transfected with c-myc promoter-luciferase reporter construct and Renilla luciferase plasmids (pRL-TK-Luc) and treated with 1 μM of SH-I-125 for 24 hours. Promoter activity was determined after normalization with Renilla luciferase activity. Columns, mean of three independent experiments with quadruplicate samples; bars, SEM.

In data set [4] the test system is estrogen response element. In words: Estrogen response element (ERE) luciferase reporter in 22Rv1 cells. The note with it: 1 μM, 24 hours. As to the method: 22Rv1 cells were transfected with ERE promoter-luciferase reporter construct and Renilla luciferase plasmids (pRL-TK-Luc) and treated with 1 μM of SH-I-125 for 24 hours. Promoter activity was determined after normalization with Renilla luciferase activity. Columns, mean of three independent experiments with quadruplicate samples; bars, SEM.

The test system of data set [5] is AR and AR-V7. The data set is described as follows: Immunofluorescence staining of AR and AR-V7 in 22Rv1 cells. The conditions noted are these: SH-I-125 1 μM, 24 hours. As for the experimental part:
[…]. Androgen receptor (AR) and PSA expression levels were assessed.
(§1) Immunofluorescence staining was performed as described in Amin et al., Mol. Cancer Ther., 13:341-52 (2014).
22Rv1 cells represent a commonly observed castration-resistant phenotype, including androgen-independent growth and the expression of AR splice variants, such as AR-V7. […]. […] […].

Data set [6] has as its target T1, AR NTD-Gal4DBD fusion protein (Homo sapiens, UniProt P10275).
T1 construct: expressed in transfected cells; host or cells: VCaP
The data set is described as follows: AR NTD-Gal4DBD / Gal4UAS-luciferase reporter in VCaP cells, forskolin-induced. The conditions noted are these: forskolin 50 μM, 24 hours. As for the experimental part: VCaP cells were co-transfected with AR-NTD-Gal4DBD expression vector and Gal4UAS-TATA-luciferase reporter construct and optionally treated with forskolin (FSK) (50 μM) for 24 hours.
The N-terminal domain of the AR (AR NTD) is known to be its transactivation domain, essential for ligand-independent AR activation.

Data set [7] concerns 22Rv1 cells. The data set is described as follows: Live and dead cell staining, 22Rv1 cells. The note with it: SH-I-125 1 μM, 3 days. As to the method: (§2) Live and dead cells were determined using a Cell Viability/Cytotoxicity Assay kit (Biotium Inc.; Hayward, Calif.).
(§3) To determine the effects of SH-I-125 on prostate cancer cell growth, 22Rv1 cells were treated with SH-I-125 and cell viability was measured after a period of 3 days. […]. In comparison, non-tumorigenic primary prostate epithelial cells (PrEC) retained 80% viability in the presence of a similar range of doses of SH-I-125, showing that tumorigenic cells are more susceptible to the growth inhibitory properties of SH-I-125 compared to non-tumorigenic cells (FIG. 8B). […] Staurosporine was used as a positive control for cell death induction in live and dead assays (FIG. 9C).

For data set [8], the system named is PrEC. The data set is described as follows: Live and dead cell staining, PrEC cells. The conditions noted are these: SH-I-125 5 μM, 3 days. As for the experimental part:
as §2, §3

The subject of data set [9] is 22Rv1 cells. The data set is described as follows: Caspase-Glo 3/7 activity assay, 22Rv1 cells. As to the method: (§4) 22Rv1 cells were treated with SH-I-125 (1 μM) for one, two, or three days, and caspase 3/7 activity was measured using Caspase-Glo 3/7 substrates. […] Data represent mean of three independent experiments with quadruplicate samples; bars, SEM. ***, p value <0.001 determined by ANOVA.
(§5) Caspase 3/7 activity was measured using Caspase-Glo 3/7 substrates. Data represent mean of three independent experiments with quadruplicate samples; bars, SEM. ***, p value <0.001 determined by ANOVA.
[…]; Madison, Wis.).
. […] Staurosporine was used as a positive control for apoptosis induction (FIG. 10B).

Data set [10] concerns VCaP cells. The data set is described as follows: Caspase-Glo 3/7 activity assay, VCaP cells. The note with it: 3 days. As for the experimental part:
as §5

Data set [11] relates to 22Rv1 cells. The data set is described as follows: Cleaved caspase-3 and cleaved PARP by Western blot and immunofluorescence, 22Rv1 cells. The conditions noted are these: SH-I-125 1 μM, three days. As for the experimental part: as §4
The presence of cleaved caspase-3 and cleaved PARP were determined. The cells were counterstained with 4′,6-diamidino-2-phenylindole (DAPI).
Western blotting was performed as described in Amin et al., Mol. Cancer Ther., 13:341-52 (2014). The following antibodies were used: Androgen receptor (N-20; Santa Cruz Biotechnology; Dallas, Tex.), PSA (A0562; Dako; Carpinteria, Calif.), β-actin (SC-47778; Santa Cruz Biotechnology), AR-V7 (AG10008; Precision Antibody; Columbia, Md.), cleaved PARP (9541; Cell Signaling Technologies, Danvers, Mass.), and cleaved caspase-3 (9664; Cell Signaling Technologies, Danvers, Mass.).
It was determined whether caspase activity and apoptosis were induced in 22Rv1 cells upon SH-I-125 treatment. […] Staurosporine was used as a positive control for apoptosis induction (FIG. 10B).

The test system of data set [12] is AR and AR-V7. In words: Western blot of AR and AR-V7 levels in 22Rv1 cells. As for the experimental part:
AR levels were assessed by Western blotting. β-actin was used as a loading control.
(§6) AR and AR-V7 levels were assessed. β-actin was used as a loading control.
as §6
MG132 (5 μM), a known proteasome inhibitor, was added on Day 2. AR expression was assessed by Western blotting. β-actin was used as a loading control.
On the technique in general: Immunoblotting shows a protein as a band on a membrane.

Data set [13] concerns 22Rv1-MDVR cells. The data set is described as follows: Cell viability (MTT), 22Rv1-MDVR cells. The conditions noted are these: MDV3100, ARN-509 10 μM, SH-I-125 range, 3 days.
Procedure: Cell viability was measured using the MTT assay.
Cells were treated in the manner indicated below for the specified period of time.
The subject of data set [14] is 22Rv1-MDVR cells. In words: Caspase-Glo 3/7 activity assay, 22Rv1-MDVR cells. The note with it: SH-I-125 1 μM, 3 days. As to the method:
Caspase 3/7 activity was measured using Caspase-Glo 3/7 substrates. Data represent mean of three independent experiments with quadruplicate samples; bars, SEM.
The emergence of resistance to clinical anti-androgens is an ongoing problem in the treatment of castration-resistant prostate cancer.

In data set [15] the test system is AR. In words: Immunofluorescence staining of AR and PSA in VCaP-MDVR cells. The conditions noted are these: DHT 1 nM, MDV3100 10 μM or SH-I-125 1 μM, 24 hours. As to the method:
AR and PSA expression levels were assessed.
as §1

T1 sequence (P10275 with tags, fused parts or gaps limits assumed): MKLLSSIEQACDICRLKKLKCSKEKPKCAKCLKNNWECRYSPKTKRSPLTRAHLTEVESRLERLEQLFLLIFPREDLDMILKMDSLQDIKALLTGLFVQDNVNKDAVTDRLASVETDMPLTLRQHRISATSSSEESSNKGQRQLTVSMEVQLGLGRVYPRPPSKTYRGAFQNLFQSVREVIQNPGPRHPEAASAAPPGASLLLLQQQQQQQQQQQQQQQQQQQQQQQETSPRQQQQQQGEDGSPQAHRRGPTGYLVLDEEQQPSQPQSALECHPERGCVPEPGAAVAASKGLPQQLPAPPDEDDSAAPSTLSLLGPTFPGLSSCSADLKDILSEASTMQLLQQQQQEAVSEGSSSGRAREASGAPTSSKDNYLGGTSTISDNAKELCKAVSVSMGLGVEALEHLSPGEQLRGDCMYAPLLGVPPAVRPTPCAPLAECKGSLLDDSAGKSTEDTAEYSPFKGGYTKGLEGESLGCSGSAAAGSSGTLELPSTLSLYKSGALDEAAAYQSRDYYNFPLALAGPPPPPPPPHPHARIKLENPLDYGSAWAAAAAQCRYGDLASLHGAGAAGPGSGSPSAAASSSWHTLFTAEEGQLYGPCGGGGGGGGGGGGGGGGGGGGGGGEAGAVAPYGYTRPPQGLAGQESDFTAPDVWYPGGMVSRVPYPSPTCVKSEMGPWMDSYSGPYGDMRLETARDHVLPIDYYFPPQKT

In the case of `COc1ccc2c(c1)[nH]c1c(C)c(OS(=O)(=O)c3cccc4ccccc34)ccc12` [SH-I-125, 7-methoxy-1-methyl-9H-carbazol-2-yl naphthalene-1-sulfonate], the “potency relative to mahanine on AR signaling (ARE-luc)” value in data set [1] was “more potent than mahanine”. Also, the ARE-luciferase activity result in [1] (range of doses) was “almost completely abolishing ARE-luciferase activity”. The hTERT promoter-luciferase activity result in data set [2] is recorded as “unaffected”. Also, in data set [3], the c-myc promoter-luciferase activity entry is listed as “unaffected”. Moreover, the ERE promoter-luciferase activity entry in [4] was “unaffected”. The “nuclear localization of AR and AR-V7” value in [5] is “decreased the nuclear localization of AR and AR-V7”. Also, the “forskolin-induced AR activation (AR NTD-Gal4DBD luciferase)” value in data set [6] is reported as “significantly inhibited forskolin-induced AR activation”. Moreover, the “live and dead cell staining” value in data set [7] was “killed 22Rv1 cells”; in data set [8], “mostly unaffected”. The “caspase 3/7 activity” value in data set [9] (3 days) and in data set [10] was “induced caspase activity” in each case. Besides, the “caspase-3 and -7 activities, time-course” value in [9] (SH-I-125 1 μM, after three days treatment) is recorded as “significantly induced”. Moreover, in [11], the “cleaved caspase-3 and cleavage of PARP” value was “presence of cleaved caspase-3 and accompanied by the cleavage of PARP”. For the same molecule, the “cellular AR and AR-V7 levels” value in data set [12] (3 days, SH-I-125 at 1 μM) was “reduced AR and AR-V7 levels”. Moreover, the “AR and AR splice variant levels in the presence of proteasome inhibitor MG132” value in [12] (SH-I-125 plus MG132) is recorded as “Proteasome inhibition rescued the decline”. In addition, the “cell growth / viability” value in data set [13] is listed as “effective in preventing the growth”. In addition, in [14], the “caspase 3/7 activation” value is “inducing caspase activation”. The “AR expression / nuclear localization” value in data set [15] is recorded as “decreased AR nuclear localization”. Moreover, the PSA expression result in data set [15] is “decreased AR nuclear localization and PSA expression”.
